This is an account of results in US4814341A, “2-guanidino-4-(2-furyl) thiazoles as antiulcer agents” (priority 1988, dated 1989).

One assay deals with T1, histamine H2-receptor (Cavia porcellus, UniProt P47747).
T1 construct: the heart removed and the right atria dissected free; from tissue; host or cells: guinea pig isolated right atria
In words: Histamine-H2 antagonist activity in isolated right atria. It counts as cell-based, Guinea pigs. The settings on record: guinea pig right atria, histamine dose-response, Krebs-Henseleit buffer pH 7.4, 32°C; read-out: pA2 (converted). How it is done:
The histamine-H2 antagonist activity of compounds of the present invention was determined by the following procedure:
Guinea pigs are killed rapidly with a blow to the head, the heart removed and the right atria dissected free. Atria are suspended, isometrically, in a temperature-controlled (32°±2° C.) tissue bath (10 ml.) containing oxygenated (95% O2; 5% CO2) Krebs-Henseleit buffer (pH 7.4) and are allowed to stabilize approximately one hour during which time the tissue bath is flushed several times. Individual atrial contractions are followed with a force-displacement transducer connected to a cardiotachometer and Grass polygraph recorder. After obtaining a dose-response curve to histamine, the bath containing each atrium is flushed several times with fresh buffer and the atria re-equilibrated to basal rates. Following the return to basal rate, test compounds are added at selected final concentrations and the histamine dose-response curve is again determined in the presence of antagonist. Results are expressed as dose-ratios, the ratio of histamine concentrations required to produce one-half of maximal stimulation in the presence and absence of antagonist, and the apparent dissociation constant of the H2 -receptor antagonist pA2, is determined.

In assay [1] the test system is conscious Heidenhain pouch dogs. Briefly: Gastric acid antisecretory activity, pentagastrin-stimulated acid output. It counts as in vivo. As to conditions: 0.1 mg/kg intravenously, overnight-fasted Heidenhain pouch dogs, lowest acid output after drug vs mean before drug. How it is done:
The gastric acid antisecretory activity of compounds of the present invention was determined in overnight-fasted, conscious Heidenhain pouch dogs as follows:
Pentagastrin (Pentavlon-Ayerst) is used to stimulate acid output by continuous infusion into a superficial leg vein at doses earlier determined to stimulate near maximal acid output from the gastric pouch. Gastric juice is collected at 30 minute intervals following the start of a pentagastrin infusion and measured to the nearest 0.1 ml. Ten collections are taken for each dog during an experiment. Acid concentration is determined by titrating 1.0 ml. of gastric juice to pH 7.4 with 0.1N sodium hydroxide using an Autoburette and a glass electrode pH meter (Radiometer).
Drug or vehicle is given intravenously or orally 90 minutes following the start of the pentagastrin infusion, at a dose of 2 mg/kg or less. Gastric acid antisecretory effects are calculated by comparing the lowest acid output after drug administration with the mean acid output immediately before drug.

In a further assay the test system is male rats. Briefly: Inhibition of ethanol-induced ulceration in rats. It counts as in vivo. The settings on record: oral dose of 30 mg/kg, fifteen minutes prior to oral absolute ethanol (1.0 ml); ulcer index vs controls. How it is done:
The antiulcer activity of the products of this invention was determined by an ethanol-induced rat ulcer assay. In this test, overnight fasted male rats are given drug (at 30 or 3 mg/kg) or water orally fifteen minutes prior to an orally administered dose of absolute ethanol (1.0 ml.). One hour after the ethanol challenge the animals (8/group) are killed and the stomachs examined for the presence of lesions. After sacrifice the abdomen is opened and a locking hemostat placed at the pylorus. Six ml. of a 4% solution of formaldehyde is injected into the stomach with a gastric feeding tube and a second locking hemostat is used to seal the esophagus. The stomach is removed, opened along the greater curvature and examined for ulceration.
The scoring system used to quantitate the ethanol-induced lesions is given below.
For each group of animals an ulcer index is calculated as follows: EXAMPLE 8 (Cont.)
Ulceration Index=(the sume of the scores of the group)×(the sum of the number of ulcers in the group)×(the fraction of the group havnng any incidence of ulceration).
The percentage inhibition of ulcers is calculated as follows:
% Inhibition=100×[(ulcer index controls) - (ulcer index drug-treated)][…](ulcer index controls).

Structures can show the parent of a compound that is named as a salt.

T1 sequence (P47747 whole entry): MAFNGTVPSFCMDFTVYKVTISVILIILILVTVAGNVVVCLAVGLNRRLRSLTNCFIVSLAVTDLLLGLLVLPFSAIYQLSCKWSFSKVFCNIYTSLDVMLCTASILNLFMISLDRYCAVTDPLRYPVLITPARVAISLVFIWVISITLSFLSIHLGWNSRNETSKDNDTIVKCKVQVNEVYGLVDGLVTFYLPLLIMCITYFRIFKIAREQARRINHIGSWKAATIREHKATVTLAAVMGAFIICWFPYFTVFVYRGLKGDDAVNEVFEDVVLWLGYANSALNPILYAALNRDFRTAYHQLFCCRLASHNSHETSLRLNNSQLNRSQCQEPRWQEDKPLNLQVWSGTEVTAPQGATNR

Consider `CCCCCCNC(=N)Nc1nc(-c2ccc(CN(C)C)o2)cs1` [4 (2HBr salt), 2-(3-n-Hexylguanidino)-4-(5-[N,N-dimethylaminomethyl]-2-furyl)thiazole], for which, at histamine H2-receptor, the Kb is 1000 nM. In assay [1], the “inhibition (gastric acid antisecretory effect)” value turned out to be 38%. Besides, in the assay on male rats, the “inhibition of ethanol-induced ulceration” value came to 93%.
Taken in the same sequence, the figures for `Br.Br.CN(C)Cc1ccc(-c2csc(NC(=N)N)n2)o1` [Example 2, 2-Guanidino-4-(5-[N,N-dimethylaminomethyl]-2-furyl)thiazole Dihydrobromide] were 20 nM, 44% and 7%.
The matching figures for `CCCCCCN(C)Cc1ccc(-c2csc(NC(=N)N)n2)o1` [3 (2HBr salt), 2-Guanidino-4-(5-[N-n-hexyl-N-methylaminomethyl]-2-furyl)thiazole]: 100 nM, 24% and 49%.
